Laboratory results from patent US10093683B2, “Factor XIa inhibitors” (Merck Sharp & Dohme Corp., priority 2014, dated 2018).
pKi: −log10 of the molar value. Where two headings read alike, the source gives them in different places.

Target: human Factor XIa (Homo sapiens (Human), UniProt P03951)
Test: Factor XIa Assay
Format: biochemical
Conditions: read-out: FXIa Ki
In short: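 Ki derived from the dependence of Vo/Vi on inhibitor concentration under a competitive-inhibition model, after pre-equilibration of enzyme and inhibitor. Reaction: 40 pM human FXIa, 100 μM Z-Gly-Pro-Arg-AFC, HEPES 50 mM pH 7.4 with NaCl, CaCl2 and PEG 8000; run at room temperature or 37° C.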

[1] = purified human Factor XIa 40 pM, Z-Gly-Pro-Arg-AFC 100 μM, pH 7.4

human Factor XIa, sequence (P03951 388-625): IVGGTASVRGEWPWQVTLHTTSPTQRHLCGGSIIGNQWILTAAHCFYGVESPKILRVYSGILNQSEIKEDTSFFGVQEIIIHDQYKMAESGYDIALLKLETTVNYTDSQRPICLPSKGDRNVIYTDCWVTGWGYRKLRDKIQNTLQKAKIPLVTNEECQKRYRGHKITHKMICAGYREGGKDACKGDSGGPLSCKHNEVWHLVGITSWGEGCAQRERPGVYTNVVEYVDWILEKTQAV
human Factor XIa, sequence (P03951 19-387 partner): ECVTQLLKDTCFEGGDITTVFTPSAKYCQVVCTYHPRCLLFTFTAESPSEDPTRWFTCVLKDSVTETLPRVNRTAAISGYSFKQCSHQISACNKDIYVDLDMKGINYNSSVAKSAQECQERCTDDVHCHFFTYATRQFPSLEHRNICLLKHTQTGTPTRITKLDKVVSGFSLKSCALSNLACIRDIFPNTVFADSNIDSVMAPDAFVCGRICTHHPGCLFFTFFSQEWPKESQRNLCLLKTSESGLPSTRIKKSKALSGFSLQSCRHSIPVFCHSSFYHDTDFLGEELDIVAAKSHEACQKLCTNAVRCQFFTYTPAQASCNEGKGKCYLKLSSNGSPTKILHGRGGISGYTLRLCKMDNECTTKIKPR

Compound	pKi [1]	pKi
COC(=O)Nc1ccc(C(=O)N[C@@H](Cc2ccccc2)C(=O)N2CC[C@]3(C2)OC(=O)Nc2ccc(C)cc23)cc1 [Example 14a, methyl (4-(((S)-1-((S)-6-methyl-2-oxo-1,2-dihydrospiro[benzo[d][1,3]oxazine-4,3′-pyrrolidin]-1′-yl)-1-oxo-3-phenylpropan-2-yl)carbamoyl)phenyl)carbamate]	5.30	
CCOP(=O)(OCC)c1ccc(C(=O)N[C@H](Cc2ccccc2)C(=O)N2CCC[C@@]3(C2)OC(=O)Nc2ccc(Cl)c(F)c23)cc1 [Example 229, diethyl (4-(((R)-1-((R)-6-chloro-5-fluoro-2-oxo-1,2-dihydrospiro[benzo[d][1,3]oxazine-4,3′-piperidin]-1′-yl)-1-oxo-3-phenylpropan-2-yl)carbamoyl)phenyl)phosphonate]		5.06
O=C1Nc2ccc(Cl)cc2[C@@]2(CCCN(C(=O)C(Cc3ccc(F)cc3)c3nc4ccc(F)cc4[nH]3)C2)O1 (stereo partly drawn) [Example 133, (4R)-6-chloro-1′-(2-(6-fluoro-1H-benzo[d]imidazol-2-yl)-3-(4-fluorophenyl)propanoyl)spiro[benzo[d][1,3]oxazine-4,3′-piperidin]-2(1H)-one]	5.06	
COC(=O)Nc1ccc(C(=O)N[C@@H](Cc2ccccc2)C(=O)N2CCC[C@@]3(C2)OC(=O)Nc2ccc(C(F)(F)F)cc23)cc1 [Example 10, methyl (4-(((S)-1-oxo-1-((R)-2-oxo-6-(trifluoromethyl)-1,2-dihydrospiro[benzo[d][1,3]oxazine-4,3′-piperidin]-1′-yl)-3-phenylpropan-2-yl)carbamoyl)phenyl)carbamate]	5.07	
O=C1Nc2ccc(Cl)cc2[C@@]2(CCCN(C(=O)C(Cc3ccc(F)cc3)c3nc(Cl)c(-c4ccc(C(=O)O)cc4)[nH]3)C2)O1 (stereo partly drawn) [Example 128, 4-(4-chloro-2-(1-((R)-6-chloro-2-oxo-1,2-dihydrospiro[benzo[d][1,3]oxazine-4,3′-piperidin]-1′-yl)-3-(4-fluorophenyl)-1-oxopropan-2-yl)-1H-imidazol-5-yl)benzoic acid]	5.06	
O=C1Nc2ccc(Cl)cc2[C@@]2(CCCN(C(=O)C(Cc3ccc(F)cc3)c3nc4ccc(C(=O)O)cc4[nH]3)C2)O1 (single isomer, unassigned) [Example 132A (isomer B)]	6.35	
COC(=O)Nc1ccc(-c2nc(C(Cc3ccccc3)C(=O)N3CCCC4(C3)OC(=O)Nc3ccc(Cl)c(F)c34)[nH]c2Cl)cc1 (single isomer, unassigned) [Example 126A, methyl (4-(5-chloro-2-(1-(6-chloro-5-fluoro-2-oxo-1,2-dihydrospiro[benzo[d][1,3]oxazine-4,3′-piperidin]-1′-yl)-1-oxo-3-phenylpropan-2-yl)-1H-imidazol-4-yl)phenyl)carbamate]	5.73	
COC(=O)Nc1ccc(C(=O)N[C@@H](Cc2ccccc2)C(=O)N2CC3(C2)OC(=O)Nc2ccc(Cl)cc23)cc1 [Example 5, (S)-methyl (4-((1-(6′-chloro-2′-oxo-1′,2′-dihydrospiro[azetidine-3,4′-benzo[d][1,3]oxazin]-1-yl)-1-oxo-3-phenylpropan-2-yl)carbamoyl)phenyl)carbamate]	< 5.30	
COC(=O)Nc1ccc(C(=O)N[C@@]2(C(=O)N3CCC4(C3)OC(=O)Nc3ccc(Cl)cc34)C[C@@H]2c2ccccc2)cc1 (stereo partly drawn) [Example 25, methyl (4-(((1S,2R)-1-(6-chloro-2-oxo-1,2-dihydrospiro[benzo[d][1,3]oxazine-4,3′-pyrrolidin]-1′-ylcarbonyl)-2-phenylcyclopropyl)carbamoyl)phenyl)carbamate]	≤ 5.30	
O=C1Nc2ccc(Cl)c(F)c2[C@@]2(CCCN(C(=O)C(Cc3ccccc3)c3nc(-c4csc(C(=O)O)c4F)c[nH]3)C2)O1 (stereo partly drawn) [Example 124, 4-(2-(1-((R)-6-chloro-5-fluoro-2-oxo-1,2-dihydrospiro[benzo[d][1,3]oxazine-4,3′-piperidin]-1′-yl)-1-oxo-3-phenylpropan-2-yl)-1H-imidazol-4-yl)-3-fluorothiophene-2-carboxylic acid]	6.68	
COC(=O)Nc1ccc(C(=O)NC2(C(=O)N3CCC4(C3)OC(=O)Nc3ccc(Cl)cc34)Cc3ccccc3C2)cc1 (racemic) [Example 26, methyl (4-((2-(6-chloro-2-oxo-1,2-dihydrospiro[benzo[d][1,3]oxazine-4,3′-pyrrolidin]-1′-ylcarbonyl)-2,3-dihydro-1H-inden-2-yl)carbamoyl)phenyl)carbamate]	≤ 5.30	
COC(=O)Nc1ccc(C(=O)N[C@@H](Cc2ccccc2)C(=O)N2CCC3(CC(=O)Nc4ccc(Cl)cc43)C2)cc1 (stereo partly drawn) [Example 18, methyl (4-(((2S)-1-(6′-chloro-2′-oxo-2′,3′-dihydro-1′H-spiro[pyrrolidine-3,4′-quinolin]-1-yl)-1-oxo-3-phenylpropan-2-yl)carbamoyl)phenyl)carbamate]	5.30	

Other lines, results leading:

pKi [1]	pKi	Compound
	7.11	O=C1Nc2ccc(Cl)c(F)c2[C@@]2(CCCN(C(=O)[C@H](Cc3ccccc3)NC(=O)c3ccc(=O)[nH]c3)C2)O1 [Example 246]
	5.30	O=C1Nc2ccc(Cl)cc2C2(CCN(C(=O)[C@H](Cc3ccccc3)NC(=O)c3ccc(C4(C(=O)O)CC4)cc3)C2)O1 (stereo partly drawn) [Example 160, 1-(4-(((2S)-1-(6-chloro-2-oxo-1,2-dihydrospiro[benzo[d][1,3]oxazine-4,3′-pyrrolidin]-1′-yl)-1-oxo-3-phenylpropan-2-yl)carbamoyl)phenyl)cyclopropanecarboxylic acid]
5.30		N#Cc1ccc(S(=O)(=O)N[C@@H](Cc2ccccc2)C(=O)N2CCC3(C2)OC(=O)Nc2ccc(Cl)cc23)cc1 (stereo partly drawn) [Example 280, N-((2S)-1-(6-chloro-2-oxo-1,2-dihydrospiro[benzo[d][1,3]oxazine-4,3′-pyrrolidin]-1′-yl)-1-oxo-3-phenylpropan-2-yl)-4-cyanobenzenesulfonamide]
5.30		COC(=O)Nc1ccc(NC(=O)N[C@@H](Cc2ccccc2)C(=O)N2CCC3(C2)OC(=O)Nc2ccc(Cl)cc23)cc1 (stereo partly drawn) [Example 275, methyl (4-(3-((2S)-1-(6-chloro-2-oxo-1,2-dihydrospiro[benzo[d][1,3]oxazine-4,3′-pyrrolidin]-1′-yl)-1-oxo-3-phenylpropan-2-yl)ureido)phenyl)carbamate]
	5.75	O=C1Nc2ccc(Cl)cc2C2(CCN(C(=O)[C@H](Cc3ccccc3)NC(=O)c3ccc(-c4nnn[nH]4)cc3)C2)O1 (stereo partly drawn) [Example 151, N-((2S)-1-(6-chloro-2-oxo-1,2-dihydrospiro[benzo[d][1,3]oxazine-4,3′-pyrrolidin]-1′-yl)-1-oxo-3-phenylpropan-2-yl)-4-(1H-tetrazol-5-yl)benzamide]
5.00		O=C1Nc2ccc(Cl)cc2[C@@]2(CCCN(C(=O)[C@H](Cc3ccccc3)Nc3ccc(-c4cc[nH]n4)cn3)C2)O1 [Example 296, (R)-1′-((5-(1H-pyrazol-3-yl)pyridin-2-yl)-L-phenylalanyl)-6-chlorospiro[benzo[d][1,3]oxazine-4,3′-piperidin]-2(1H)-one]
	7.32	O=C1Nc2ccc(Cl)cc2C2(CCN(C(=O)[C@H](Cc3ccccc3)NC(=O)c3ccc4[nH]ncc4c3)C2)O1 (stereo partly drawn) [Example 142]
	5.06	O=C1Nc2ccc(Cl)cc2[C@@]2(CCCN(C(=O)[C@H](CC3CC3)NC(=O)c3cnc4c(c3)CCN4)C2)O1 [Example 207]
	5.39	Nc1ccc2cc(C(=O)N[C@@H](Cc3ccccc3)C(=O)N3CCC4(C3)OC(=O)Nc3ccc(Cl)cc34)ccc2n1 (stereo partly drawn) [Example 261]
